How the values were obtained:
[1] = system: 'Acetaminophen' (APAP) induced hepatotoxicity; experiment: Hepatoprotective activity (in vivo) against acetaminophen (paracetamol) induced hepatotoxicity after diethyl-ether inhalation; details: mice; for Serum parameters GOT / Serum parameters GPT: unit is µmole pyruvate/min/L; for hepatoprotective activity percent, ALP / hepatoprotective activity percent, Bilirubin / hepatoprotective activity percent, GOT / hepatoprotective activity percent, GPT / hepatoprotective activity percent, Glutathione / hepatoprotective activity percent, Lipid peroxidation / hepatoprotective activity percent, Triglycerides: APAP, 50 mg kg-1 p.o., H = [1-(TC-V/VC-V)] × 100
Protocol: (§1) i. Animals: The pharmacological studies are conducted on Wistar albino rats (150-180g) and Swiss albino mice (25-30g) of either sex, colony - bred in the Institute's animal house. After procurement, all the animals are divided into different groups and are left for one week for acclimatization to experimentation room and are maintained on standard conditions (23±2°C, 60-70 % relative humidity and 12 h photo period). The animals are fed with standard rodents pellet diet and water ad libitum. There are six animals in each group except for general behaviour and acute toxicity studies where ten animals are used in each group.
Paracetamol (APAP, acetaminophen): It is a therapeutic agent widely used as analgesic/antipyretic drug. When taken in large doses it causes hepatic necrosis which leads to biochemical changes having clinical features similar to those of acute viral hepatitis. The similar effect is observed in animals. The toxic effect can be potentiated if it is given several hours after the anesthetic ether inhalation (Wells et. al., 1986).
Liver injury is induced by injecting paracetamol (200 mg.kg^-1) interaperitoneally in normal saline (pH 9.4) six hour after inhalation of anesthetic ether (4ml/4min/6animals) in a closed chamber. The control animals received the equal volume of vehicle. (Table 2)
(§2) Freshly prepared suspension (1%, w/v) in 0.2% gum acacia in normal saline is used for all the experiments except for toxicity studies where (10 %, w/v) suspension is used. Silymarin suspension (1%, w/v) in 0.2 % gum acacia is used as a reference standard (positive control).
The doses of TCA and APO individually and in mixture, silymarin (50 mg/kg, p.o. each) and vehicle (normal saline) are fed to different groups of mice at 72 hours, 48 hours and 24 hours, 1 hour before diethyl ether inhalation and 1hour after hepatotoxin (paracetamol, 200 mg.kg^-1, i.p.) given 6 hours after exposure to diethyl- ether. Blood is collected from orbital sinus in all the animals 18 hours after last treatment and serum separated for different estimations. A portion of the liver is processed for histopathological studies. (Table 2)
(§3) • GPT and GOT: Pyruvate formed by transamination reaction is determined spectrophotometrically after reaction with 2,4-dinitrophenylhydrazine (Reitman and Frankel, 1957). • ALP : p-nitrophenol formed in alkaline medium is measured spectrophotometrically using p-nitrophenyl phosphate as substrate (Walter and Schutt, 1974). • Bilirubin : Total bilirubin is measured by diazotization reaction with NaNO2 (Malloy and Evelyn, 1937) • Triglycerides : Triglycerides from serum are extracted with isopropanol and sopanified with KOH. The liberated glycerol is converted to formaldehyde by periodate and determined after reaction with acetyl acetone. Triolein is used as standard (Neri and Firings, 1973). • Glutathione: It is determined after deproteination by reaction with DTNB (Ellman 1959 as modified by David 1987). • Lipid peroxidation: Thiobarbituric acid reacting substances are determined spectrophotometrically at 535 nm. Buege. and Aust. (1978).
(§4) Hepatoprotective activity (H) is calculated by the following equation: H = [1-(TC-V/VC-V)] × 100 [formula]
(§5) Where TC, VC, and V are drug + toxin, vehicle + toxin and vehicle treated groups of animals respectively.

[2] = system: CCl4 induced hepatic injury; experiment: Hepatoprotective activity (in vivo) against CCl4 induced hepatic injury; details: rats; for Hepatic parameters Glutathione / Hepatic parameters Lipid peroxidation / Serum parameters ALP / Serum parameters Bilirubin / Serum parameters Triglycerides / Serum parameters GOT / Serum parameters GPT: 50 mg kg-1 p.o. at 48h, 24h, 2h before and 6h after CCl4 0.5 ml kg-1 p.o.; for Serum parameters GOT / Serum parameters GPT: unit is µmole pyruvate/min/L; for hepatoprotective activity percent, ALP / hepatoprotective activity percent, Bilirubin / hepatoprotective activity percent, GOT / hepatoprotective activity percent, GPT / hepatoprotective activity percent, Glutathione / hepatoprotective activity percent, Lipid peroxidation / hepatoprotective activity percent, Triglycerides: CCl4, 50 mg kg-1 p.o., H = [1-(TC-V/VC-V)] × 100
Protocol: as §1
Carbon tetrachloride (CCl4): CCl4 is one of the most powerful hepatotoxins (in term of severity of injury). It causes toxic necrosis, which leads to biochemical changes having clinical features similar to those of acute viral hepatitis (Vogel, 1977, Bramanti et. al., 1978, Kumar et. al., 1992). Liver injury is produced by administration of CCl4 mixed with liquid paraffin. Animals are given single dose of CCl4 (50 µl.kg^-1, p.o.) in acute single treatment and (0.5 ml.kg^-1, p.o.) in case of multitreatment with drug. It is administered orally (p.o) by gastric intubation. The control animals received the equal volume of liquid paraffin. (Table 3, 4).
as §2
Treatment of test material before and after hepatotoxin: The doses of TCA and APO individually and in mixture, silymarin (50 mg/kg, p.o. each) and vehicle (normal saline) are fed to different groups of rats at 48 hours, 24 hours and 2 hours before and 6 hours after hepatotoxin (CCl4 , 0.5 ml.kg^-1, p.o.) intoxication. Blood is collected from orbital sinus in all the animals 18 hours after last treatment and serum separated for different estimations. All the animals are then killed by decapitation, their livers are quickly excised, cleaned of adhering tissue, weighed and homogenised in phosphate buffer saline for the analysis of hepatic parameters (Agarwal and Mehendale, 1983, Klingensmith and Mehendale, 1982, Zimmerman, 1973, Edmondson and Peter, 1985, Mitchell, et al, 1973). (Table 3-4).
as §3, §4, §5

[3] = system: bile flow and bile solids; experiment: Choleretic activity: bile flow and bile solids after bile duct cannulation in normal anaesthetised rats; type: in vivo; details: 50 mg kg-1 i.d., bile collected 0-5 hours, mean ±SE
Excerpt: The liver, by producing bile, plays an important role in digestion. The presence of bile in the intestine is necessary to accomplish the digestion and absorption of fats as well as absorption of the fat-soluble vitamins- A, D, E & K. Bile is also an important vehicle of excretion. It removes many drugs, toxins, bile pigments and various inorganic substances either derived from the diet or synthesized by the body as cholesterol or as cholic acid.
Effect on the liver bile flow of test drug and that of vehicle is carried out after cannulating the bile duct in normal anaesthesied rats. Bile collected is from each animal from 0-5 hours (Klaassen, 1969, Donal et al.1953). (Table 5)

[4] = 50 mg kg-1 p.o. at 72 h, 48 h, 24 h, 1h before diethyl-ether and 1 h after APAP 200 mg kg-1 i.p., mean ± S.E.
[5] = Table 4 (own control groups), mean ± S. E.

| SMILES | Hepatic parameters Glutathione [1, 4] [µ mole GSH/g liver] | Serum parameters ALP [1, 4] | Serum parameters Bilirubin [1, 4] [mg %] | Serum parameters Triglycerides [1, 4] [mg %] | Serum parameters GOT [1, 4] [Units] | Serum parameters GPT [1, 4] [Units] | hepatoprotective activity percent, ALP [1] | hepatoprotective activity percent, Bilirubin [1] | hepatoprotective activity percent, GOT [1] | hepatoprotective activity percent, GPT [1] | hepatoprotective activity percent, Glutathione [1] | hepatoprotective activity percent, Lipid peroxidation [1] | hepatoprotective activity percent, Triglycerides [1] | Bile parameters % Increase (as compared to normal) Bile flow [3] [ml%] | Bile parameters % Increase (as compared to normal) Bile solids [3] [mg%] | other results |
| --- | --- | --- | --- | --- | --- | --- | --- | --- | --- | --- | --- | --- | --- | --- | --- | --- |
| COc1cc(C(C)=O)ccc1O [APO, Apocynin] | 4.60±0.42 | 29.71±1.89 µ mole of p-nitroplenol formed/min/ L | 0.43±0.01 | 30.50±1.36 | 755.04±112.04 | 1334.72±98.34 | (67.91) percent | (42.59) percent | (36.07) percent | (42.27) percent | (42.60) percent | (38.34) percent | (36.68) percent | 27.39±2.05 | 24.05±2.76 | Hepatic parameters Lipid peroxidation [1, 4]: 48.32±2.13 n moles MDA/g liver; Hepatic parameters Glutathione [2, 5]: 4.44±0.26 µ mole GSH/g liver; Hepatic parameters Lipid peroxidation [2, 5]: 48.12±2.28 n moles MDA/g liver; Serum parameters ALP [2, 5]: 26.66±2.06 µ mole ofp-nitrophenol formed/min/ L; Serum parameters Bilirubin [2, 5]: 0.37±0.01 mg %; Serum parameters Triglycerides [2, 5]: 28.00±2.39 mg %; Serum parameters GOT [2, 5]: 489.39±66.82 Units; Serum parameters GPT [2, 5]: 838.58±69.65 Units; hepatoprotective activity percent, ALP ([2]; Table 4): (86.05) percent; hepatoprotective activity percent, Bilirubin ([2]; Table 4): (48.94) percent; hepatoprotective activity percent, GOT ([2]; Table 4): (39.31) percent; hepatoprotective activity percent, GPT ([2]; Table 4): (47.86) percent; hepatoprotective activity percent, Glutathione ([2]; Table 4): (40.73) percent; hepatoprotective activity percent, Lipid peroxidation ([2]; Table 4): (42.77) percent; hepatoprotective activity percent, Triglycerides ([2]; Table 4): (36.68) percent |
| CCCCCCCC/C=C/CCCCCCCCCCCCCC(=O)O [TCA, trans-tetracos-15-enoic acid] | 4.59±0.45 | 34.95±1.89 µ mole of p-nitroplenol formed/min/ L | 0.355±0.01 | 23.53±1.77 | 561.83±51.52 | 1008.04±63.66 | (52.96) percent | (56.48) percent | (54.92) percent | (57.99) percent | (42.35) percent | (55.48) percent | (66.05) percent | 08.23±1.71 | 13.40±1.53 | Hepatic parameters Glutathione ([2]; Table 3, mean ± S.E.): 5.35±0.51 µ mole GSH/g liver; Hepatic parameters Lipid peroxidation ([2]; Table 3, mean ± S.E.): 46.88±2.58 n moles MDA/g liver; Serum parameters ALP ([2]; Table 3, mean ± S.E.): 28.72±3.90 µ mole of p-nitrophenol formed/min/ L; Serum parameters Bilirubin ([2]; Table 3, mean ± S.E.): 0.35±0.02 mg %; Serum parameters Triglycerides ([2]; Table 3, mean ± S.E.): 23.53±1.77 mg %; Serum parameters GOT ([2]; Table 3, mean ± S.E.): 409.73±46.57 Units; Serum parameters GPT ([2]; Table 3, mean ± S.E.): 324.84±42.09 Units; hepatoprotective activity percent, ALP ([2]; Table 3): (81.78) percent; hepatoprotective activity percent, Bilirubin ([2]; Table 3): (55.55) percent; hepatoprotective activity percent, GOT ([2]; Table 3): (62.16) percent; hepatoprotective activity percent, GPT ([2]; Table 3): (74.63) percent; hepatoprotective activity percent, Glutathione ([2]; Table 3): (52.92) percent; hepatoprotective activity percent, Lipid peroxidation ([2]; Table 3): (64.33) percent; hepatoprotective activity percent, Triglycerides ([2]; Table 3): (66.05) percent |

— patent publication EP1509285B1, “SYNERGISTIC COMPOSITION OF TRANS-TETRACOS-15-ENOIC ACID AND APOCYNIN AND USE THEREOF” (COUNCIL OF SCIENTIFIC AND INDUSTRIAL RESEARCH, priority 2002, dated 2003)
